Reference: article doi:10.1101/2020.08.20.259572v2 (biorxiv, 2020)

T1: GlyT1b (hGlyT1b; Flag-Glyt1b) (Homo sapiens, UniProt P48067)
T1 sequence (P48067 15-652 isoform P48067-3): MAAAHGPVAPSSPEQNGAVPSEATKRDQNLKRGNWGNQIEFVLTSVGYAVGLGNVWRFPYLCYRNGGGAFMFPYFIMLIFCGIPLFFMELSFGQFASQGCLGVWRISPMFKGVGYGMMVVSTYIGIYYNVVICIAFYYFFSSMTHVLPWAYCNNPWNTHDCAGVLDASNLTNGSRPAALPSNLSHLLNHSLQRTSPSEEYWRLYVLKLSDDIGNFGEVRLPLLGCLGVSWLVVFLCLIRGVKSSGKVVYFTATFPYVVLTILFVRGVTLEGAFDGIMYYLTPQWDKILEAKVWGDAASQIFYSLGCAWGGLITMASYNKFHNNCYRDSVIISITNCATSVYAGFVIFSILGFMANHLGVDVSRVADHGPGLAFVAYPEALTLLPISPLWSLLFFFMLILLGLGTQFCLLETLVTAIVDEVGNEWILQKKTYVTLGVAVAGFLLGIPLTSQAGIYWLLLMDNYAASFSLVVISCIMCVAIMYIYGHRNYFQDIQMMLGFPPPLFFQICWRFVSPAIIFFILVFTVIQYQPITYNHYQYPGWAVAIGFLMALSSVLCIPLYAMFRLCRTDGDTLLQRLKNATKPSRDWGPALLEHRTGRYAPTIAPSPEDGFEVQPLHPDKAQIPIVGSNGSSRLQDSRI


Experiments:
[1] = biological target: T1, GlyT1b (hGlyT1b; Flag-Glyt1b); assay: displacement of […] [3H]CHIBA-3007, membrane filtration assay; type: binding; conditions: 150 mM NaCl, 10 mM HEPES pH 7.4, RT
[2] = substrate: NCC(=O)O; assay: [3H]glycine uptake into transfected HEK MSR cells; type: cell-based, Homo sapiens; conditions: 0.05-200 µM glycine

Row | KI [1] [µM] | Molecule | Km [2] [µM]
1 | 330 ± 10 | NCC(=O)O [glycine] | 
2 |  | GlyT1b (hGlyT1b; Flag-Glyt1b) (Homo sapiens) (protein) MAAAHGPVAPSSPEQNGAVPSEATKRDQNLKRGNWGNQIEFVLTSVGYAVGLGNVWRFPYLCYRNGGGAFMFPYFIMLIFCGIPLFFMELSFGQFASQGCLGVWRISPMFKGVGYGMMVVSTYIGIYYNVVICIAFYYFFSSMTHVLPWAYCNNPWNTHDCAGVLDASNLTNGSRPAALPSNLSHLLNHSLQRTSPSEEYWRLYVLKLSDDIGNFGEVRLPLLGCLGVSWLVVFLCLIRGVKSSGKVVYFTATFPYVVLTILFVRGVTLEGAFDGIMYYLTPQWDKILEAKVWGDAASQIFYSLGCAWGGLITMASYNKFHNNCYRDSVIISITNCATSVYAGFVIFSILGFMANHLGVDVSRVADHGPGLAFVAYPEALTLLPISPLWSLLFFFMLILLGLGTQFCLLETLVTAIVDEVGNEWILQKKTYVTLGVAVAGFLLGIPLTSQAGIYWLLLMDNYAASFSLVVISCIMCVAIMYIYGHRNYFQDIQMMLGFPPPLFFQICWRFVSPAIIFFILVFTVIQYQPITYNHYQYPGWAVAIGFLMALSSVLCIPLYAMFRLCRTDGDTLLQRLKNATKPSRDWGPALLEHRTGRYAPTIAPSPEDGFEVQPLHPDKAQIPIVGSNGSSRLQDSRI | 35.2 ± 2.1
